A short description of the series: solvent given as SMILES.

The source of these data is the Deep4Chem optical property database.

`CCCCC(CC)Cn1c2cc(C#N)ccc2c2cc(-c3ccc(N(c4ccccc4)c4ccccc4)cc3)c(C#N)cc21` (stereo not drawn): the emission maximum turned out to be 444 nm (in C1CCCCC1); 507 nm (in C1CCOC1); 548 nm (in CC#N); 464 nm (in CCCCOCCCC); 461.69 nm (in CCN(CC)CC); 463 nm (in CCOC(C)=O). The emission maximum by setting is: (in CCOCC) 501 nm; (in CN(C)C=O) 543 nm; (in Cc1ccccc1) 474 nm; (in ClC=C(Cl)Cl) 477 nm; (in ClCCl) 517 nm.

Molecule `c1ccc(-c2nnc(-c3ccccc3)n2-c2ccc(N3c4ccccc4N(c4ccccc4)c4ccccc43)cc2)cc1` came in with an emission maximum (in Cc1ccccc1) of 495 nm and an emission maximum (in c1cc(-n2c3ccccc3c3ccccc32)cc(-n2c3ccccc3c3ccccc32)c1) of 474 nm.

With `Cc1c2ccc(=[N+]3CCCCC3)cc-2oc2cc(N3CCCCC3)ccc12`, for the setting “in ClCCl”, the emission maximum was found to be 570 nm.

As for `COc1ccc(-c2c3ccc(=[N+]4CCCCC4)cc-3oc3cc(N4CCCCC4)ccc23)cc1`, the emission maximum by setting is: (in CCO) 582 nm; (in ClCCl) 582 nm.

On to `F[B-]1(F)N2C=CN=CC2=[N+]2[N+]1=Cc1c(-c3ccccc3)cc(-c3ccccc3)n1[B-]2(F)F`, for which, where the note is “in ClCCl”, the emission maximum stood at 560 nm.

`O=C1CC(=O)Nc2cc([N+](=O)[O-])ccc2N1` had an emission maximum (in CS(C)=O) of 403 nm.

As to `C[n+]1ccc(/C=C/c2cc[n+](C)cc2)cc1`, for the setting “in CC#N”, the emission maximum is reported as 372 nm.

`CCCCCCCCOc1ccc(C2=C3C(C)=C(C#Cc4ccc(B(c5c(C)cc(C)cc5C)c5c(C)cc(C)cc5C)cc4)C(C)=[N+]3[B-](F)(F)n3c(C)c(C#Cc4ccc(B(c5c(C)cc(C)cc5C)c5c(C)cc(C)cc5C)cc4)c(C)c32)cc1` displayed an emission maximum (in CC#N) of 598 nm, an emission maximum (in CCCCCC) of 604 nm and an emission maximum (in ClCCl) of 602 nm.

As to `CC1=C(I)C(C)=[N+]2C1=C(c1c(-c3ccccn3)nc3ccccn13)c1c(C)cc(C)n1[B-]2(F)F`, for the setting “in ClCCl”, the emission maximum is 558 nm.

Under “in C1COCCO1”, `COC(=O)c1ccc(/C=C2\N=C(c3ccccc3)NC2=O)cc1` returned an emission maximum of 461 nm.

Regarding `[O-][n+]1c(/C=C/c2ccc(/C=C/c3ccccc3)cc2)nc(N2CCOCC2)c2c1CCCC2`, under “in ClCCl”, the emission maximum is 531 nm.

`CCOC(=O)c1ccc(C2=Cc3cc4ccccc4cc3P2(=O)c2ccccc2)cc1` (stereo not drawn): for the setting “in ClCCl”, the emission maximum was 432 nm.

As to `CCCCCn1c2ccc(S(=O)(=O)O)cc2c(=O)c2cc(S(=O)(=O)O)ccc21`, the emission maximum is reported as 421 nm (in CS(C)=O) and 431 nm (in O).

For `O=C(c1ccc(N2c3ccccc3Sc3ccccc32)cc1)c1ccc2sc3ccccc3c2c1`, the emission maximum (in C1CCOC1) is 604 nm and the emission maximum (in c1ccc2c(c1)c1ccccc1n2-c1ccc(-c2ccc(-n3c4ccccc4c4ccccc43)cc2)cc1) amounted to 524 nm.

`N#Cc1c(-n2c3ccc(Br)cc3c3cc(Br)ccc32)c(-n2c3ccc(Br)cc3c3cc(Br)ccc32)c(C#N)c(-n2c3ccc(Br)cc3c3cc(Br)ccc32)c1-n1c2ccc(Br)cc2c2cc(Br)ccc21` gave an emission maximum (in Cc1ccccc1) of 546 nm.

As for `CC1=CC(C)=[N+]2C1=C(c1ccc(I)cc1)c1c(C)cc(C)n1[B-]2(Oc1ccccc1)Oc1ccccc1`, the emission maximum (in ClC(Cl)Cl) stood at 517.5 nm.

`CC1=CC(C)=[N+]2C1=C(c1c3ccccc3c(C)c3ccccc13)c1c(C)cc(C)n1[B-]2(F)F`: the emission maximum reads like this: (in CC#N) 518 nm; (in CCCCCC) 512 nm; (in CCO) 516 nm; (in CN(C)C=O) 519 nm; (in Cc1ccccc1) 517 nm; (in ClCCl) 519 nm.
